We go through two compounds from patent US20030181461A1, “Use of phosphodiesterase antagonists to treat insulin resistance” (priority 2002, published 2003).

Molecules are shown by their SMILES.

The test system of experiment [1] is insulin resistance in cats. In words: Development of insulin resistance in cats after muscarinic antagonists (RIST). The class given is in vivo. From the text: To avoid the complexity of the reaction to hypoglycemia, the rapid insulin sensitivity test (RIST) was employed (Lautt et al., Can. J. Physiol. Pharmacol. 76:1080 (1998)) wherein a euglycemic clamp was used following the administration of insulin and the response was quantitated as the amount of glucose required to be infused over the test period in order to hold arterial blood glucose levels constant.

Experiment [2] has as its system insulin sensitivity in atropine-treated rats. In words: Rapid insulin sensitivity test (RIST) in rats with atropine-induced 75% HISS-dependent insulin resistance. The class given is in vivo, Male Sprague Dawley rats. As to conditions: zaprinast 0.1 mg/kg ipv. How it is done:
Methods for reversal of HISS-dependent insulin resistance using a phosphodiesterase inhibitor in normal rats Male Sprague Dawley rats (250-300 g) were allowed free access to water and normal rodent food for 1 week prior to all studies. Rats were fasted for 8 hours overnight and fed for 2 hours before the start of study. Rats were anesthetized with pentobarbital-sodium (65 mg/ml, ip injection, 0.1 ml/100 g body weight). Animals were placed on a heated thermostatically controlled surgical table to maintain body temperature during surgery and the experimental procedure. An extra-corporeal arterial-venous shunt (the loop) was established between the right femoral artery and right femoral vein, according to a published, standard operating procedure developed in our laboratory (Xie et al., 1996). The loop allows for regular blood sampling of arterial blood throughout the experiment as well as infusion of intravenous drugs and monitoring of arterial blood pressure. […] A laparotomy was performed and an indwelling portal venous catheter was inserted using a portal vein puncture technique. The portal catheter was used to administer the phosphodiesterase inhibitor directly to the liver. […] At this point, blood samples (25 μl) were taken at regular intervals from the loop and analyzed for glucose concentration. […] Glucose levels were monitored every 2 minutes during and after the infusion of insulin. […]

`COc1ccccc1CNCCCCCCNCCCCCCCCNCCCCCCNCc1ccccc1OC` [methoctramine]: the “Dose required to produce a full (similar degree of) insulin resistance” value in experiment [1] is given as 10^−6 μmol/kg. Consider `CCCOc1ccccc1-c1nc2nn[nH]c2c(=O)[nH]1` [zaprinast], for which, in experiment [2], the “Reversal of HDIR produced by atropine” value is listed as “able to reverse the HDIR produced by atropine”.
